This note sets out measurements from patent publication US20050090524A1, “Novel adamantane derivatives” (priority 2002, published 2005).

Counter-ions that a name gives are not always drawn.

As a reminder, the melting point is the temperature of the solid-liquid transition. By IC50 is commonly meant the concentration that gives 50% inhibition.

In series [1] the target is T1, P2X7 receptor (Homo sapiens, UniProt Q99572).
T1 construct: 200 μl of a suspension of THP-1 cells; endogenous in cells; host or cells: THP-1 cells
T1 sequence (Q99572 1-595): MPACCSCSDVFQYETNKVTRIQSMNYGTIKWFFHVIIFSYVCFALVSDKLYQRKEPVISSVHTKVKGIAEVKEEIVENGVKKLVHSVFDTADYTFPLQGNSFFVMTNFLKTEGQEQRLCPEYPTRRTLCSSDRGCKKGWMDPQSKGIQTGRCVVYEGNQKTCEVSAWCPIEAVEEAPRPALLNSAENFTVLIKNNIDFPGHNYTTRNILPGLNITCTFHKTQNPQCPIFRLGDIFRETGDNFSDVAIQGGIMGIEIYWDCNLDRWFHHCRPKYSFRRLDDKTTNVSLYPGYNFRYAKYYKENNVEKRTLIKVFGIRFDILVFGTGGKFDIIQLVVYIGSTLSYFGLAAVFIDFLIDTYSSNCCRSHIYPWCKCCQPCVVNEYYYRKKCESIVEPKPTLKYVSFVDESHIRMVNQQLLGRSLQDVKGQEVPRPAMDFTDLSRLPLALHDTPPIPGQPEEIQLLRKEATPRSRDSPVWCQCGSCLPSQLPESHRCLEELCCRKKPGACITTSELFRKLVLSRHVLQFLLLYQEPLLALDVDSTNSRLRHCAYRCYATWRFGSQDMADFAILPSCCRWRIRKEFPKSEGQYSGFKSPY
The series is described as follows: P2X7 receptor antagonist test: bbATP-induced ethidium bromide fluorescence in THP-1 cells. The conditions noted are these: bbATP agonist, 37° C. for one hour, negative logarithm of concentration reducing bbATP agonist activity by 50%. The class given is cell-based. The source says: Certain compounds such as benzoylbenzoyl adenosine triphosphate (bbATP) are known to be agonists of the P2X7 receptor, effecting the formation of pores in the plasma membrane (Drug Development Research (1996), 37(3), p.126). Consequently, when the receptor is activated using bbATP in the presence of ethidium bromide (a fluorescent DNA probe), an increase in the fluorescence of intracellular DNA-bound ethidium bromide is observed. The increase in fluorescence can be used as a measure of P2X7 receptor activation and therefore to quantify the effect of a compound on the P2X7 receptor.
In this manner, each of the title compounds of the Examples was tested for antagonist activity at the P2X7 receptor. Thus, the test was performed in 96-well flat bottomed microtitre plates, the wells being filled with 250 μl of test solution comprising 200 μl of a suspension of THP-1 cells (2.5×10^6 cells/ml) containing 10^−4M ethidium bromide, 25 μl of a high potassium buffer solution containing 10^−5M bbATP, and 25 μl of the high potassium buffer solution containing 3×10^−5M test compound. The plate was covered with aplastics sheet and incubated at 37° C. for one hour. The plate was then read in a Perkin-Elmer fluorescent plate reader, excitation 520 nm, emission 595 nm, slit widths: Ex 15 nm, Em 20 nm. For the purposes of comparison, bbATP (a P2X7 receptor agonist) and pyridoxal 5-phosphate (a P2X7 receptor antagonist) were used separately in the test as controls. From the readings obtained, a pIC50 figure was calculated for each test compound, this figure being the negative logarithm of the concentration of test compound necessary to reduce the bbATP agonist activity by 50%.

Take `CNCCCN(C)c1ccc2c(C(=O)NCC34CC5CC(CC(C5)C3)C4)c(Cl)ccc2n1` (as salt: TFA) [Example 208, N-(1-Adamantylmethyl)-6-chloro-2-{methyl[3-(methylamino)propyl]amino}quinoline-5-carboxamide]: the melting point was in the range of 195 to 200 °C.
Same read-out and setting: then `CNCCCc1cccc2c(C(=O)NCC34CC5CC(CC(C5)C3)C4)ccnc12` (as salt: hydrochloride), with 243 to 246 °C (dec.); and `O=C(NCC12CC3CC(CC(C3)C1)C2)c1cccc2nc(CCCNCCCO)ccc12` (as salt: hydrochloride), with 150 to 152 °C.
Take `Cc1ccc2nc(NCCNCCO)ccc2c1NC(=O)CC12CC3CC(CC(C3)C1)C2` (as salt: hydrochloride): the melting point is 227 to 230 °C.
For `O=C(CC12CC3CC(CC(C3)C1)C2)Nc1c(Cl)ccc2nc(NCCNCCO)ccc12` (as salt: hydrochloride), the melting point was in the range of 219 to 223 °C.
The same measure, in the same setting: then `Cc1ccc2nc(N3CCN(CCO)CC3)ccc2c1NC(=O)CC12CC3CC(CC(C3)C1)C2` (as salt: hydrochloride), with 224 °C; and `Cc1ccc2nc(N3CCC(N)CC3)ccc2c1NC(=O)CC12CC3CC(CC(C3)C1)C2` (as salt: hydrochloride), with 295 °C.
As for `Cc1ccc2nc(N3CC[C@H](N)C3)ccc2c1NC(=O)CC12CC3CC(CC(C3)C1)C2` (as salt: hydrochloride), the melting point is 291 °C.
Take `Cc1ccc2nc(N3CC[C@H](NC(=O)N4CC[C@H](N)C4)C3)ccc2c1NC(=O)CC12CC3CC(CC(C3)C1)C2` (as salt: hydrochloride): the melting point is 270 °C.
Still for that read-out and setting: then `O=C(CC12CC3CC(CC(C3)C1)C2)Nc1c(Cl)ccc2nc(CC[C@@H](O)CO)ccc12` (as salt: hydrochloride), with 147 to 150 °C; and `CNCCNc1ccc2c(NC(=O)CC34CC5CC(CC(C5)C3)C4)c(Cl)ccc2n1` (as salt: hydrochloride), with 232 to 234 °C; and `O=C(CC12CC3CC(CC(C3)C1)C2)Nc1c(Cl)ccc2nc(NCCCNCCO)ccc12` (as salt: hydrochloride), with 264 to 266 °C.
`CNCCCc1ccc2c(C(=O)NCC34CC5CC(CC(C5)C3)C4)cccc2n1` (as salt: hydrochloride) displayed a melting point of 158 to 160 °C.
Same read-out and setting: then `CNCCCc1ccc2c(C(=O)NCC34CC5CC(CC(C5)C3)C4)c(Cl)ccc2n1` (as salt: hydrochloride) [Example 167, N-(1-Adamantylmethyl)-6-chloro-2-[3-(methylamino)propyl]quinoline-5-carboxamide Sesquihydrochloride], with 184 to 185 °C.
Same read-out and setting: the value for `O=C(NCC12CC3CC(CC(C3)C1)C2)c1c(Cl)ccc2nc(CN3CCNCC3)ccc12` (as salt: hydrochloride) [Example 170, N-(1-Adamantylmethyl)-6-chloro-2-(piperazin-1-ylmethyl)quinoline-5-carboxamide Hydrochloride] was 208 °C (dec.); that for `CCNCCCc1ccc2c(C(=O)NCC34CC5CC(CC(C5)C3)C4)cccc2n1` (as salt: hydrochloride) [Example 173, N-(1-Adamantylmethyl)-2-[3-(ethylamino)propyl]quinoline-5-carboxamide Dihydrochloride] was 150 to 155 °C.
In the case of `O=C(CC12CC3CC(CC(C3)C1)C2)Nc1cccc2nc(CCCNCCCO)ccc12` (as salt: hydrochloride) [Example 177, 2-(1-Adamantyl)-N-(2-{3-[(3-hydroxypropyl)amino]propyl}quinolin-5-yl)acetamide Dihydrochloride], the melting point lay in the range of 130 to 135 °C.
On the same count and under the same terms, the value for `Cc1ccc2nc(N3CCNCC3)ccc2c1NC(=O)CC12CC3CC(CC(C3)C1)C2` (as salt: hydrochloride) [Example 178, 2-(1-Adamantyl)-N-(6methyl-2-piperazin-1-ylquinolin-5-yl)acetamide Dihydrochloride] was 276 °C; that for `Cc1ccc2nc(N3CCC(NCCO)CC3)ccc2c1NC(=O)CC12CC3CC(CC(C3)C1)C2` (as salt: hydrochloride) [Example 181, 2-(1-Adamantyl)-N-(2-{4-[(2-hydroxyethyl)amino]piperidin-1-yl}-6-methylquinolin-5-yl)acetamide Dihydrochloride] was 306 °C.
Same read-out and setting: then `O=C(CC12CC3CC(CC(C3)C1)C2)Nc1c(Cl)ccc2nc(N3CCNCC3)ccc12` (as salt: hydrochloride) [Example 207, 2-(1-Adamantyl)-N-(6-chloro-2-piperazin-1-ylquinolin-5-yl)acetamide], with 280 to 283 °C.
Still for that read-out and setting: then `O=C(NCC12CC3CC(CC(C3)C1)C2)c1cc(CCCNCCCO)nc2ccccc12` (as salt: salt) [Example 168, N-(1-Adamantylmethyl)-2-{3-[(3-hydroxypropyl)amino]propyl}quinoline-4-carboxamide Benzoic Acid Salt], with 147 to 148 °C (dec.); and `O=C(NCC12CC3CC(CC(C3)C1)C2)c1cccc2ncccc12` (as salt: trifluoroacetate), with 125 to 127 °C (dec.); and `O=C(CC12CC3CC(CC(C3)C1)C2)Nc1c(Cl)ccc2nc(CN[C@@H]3CCNC3)ccc12` (as salt: trifluoroacetate), with 90 to 91 °C.
`O=C(CC12CC3CC(CC(C3)C1)C2)Nc1c(Cl)ccc2nc(CN3CCNCC3)ccc12` (as salt: trifluoroacetate): the melting point is 132 to 136 °C.
Still for that read-out and setting: the value for `Cc1ccc2nc(NCCO)ccc2c1NC(=O)CC12CC3CC(CC(C3)C1)C2` (as salt: trifluoroacetic acid salt) [Example 13, 2-(1-Adamantyl)-N-{2[(2-hydroxyethyl)amino]-6-methylquinolin-5-yl}acetamide] was 103 to 107 °C; that for `Cc1ccc2nc(N(C)CCN(C)C)ccc2c1NC(=O)CC12CC3CC(CC(C3)C1)C2` (as salt: trifluoroacetic acid salt) [Example 14, 2-(1-Adamantyl)-N-{2-[[2-(dimethylamino)ethyl](methyl)amino]-6-methylquinolin-5-yl}acetamide] was 193 to 195 °C.
Same read-out and setting: the value for `O=C(CC12CC3CC(CC(C3)C1)C2)Nc1c(Cl)ccc2ncccc12` [Example 5, 2-(1-Adamantyl)-N-(6-chloroquinolin-5-yl)acetamide] was 219 to 220 °C.
`O=C(CC12CC3CC(CC(C3)C1)C2)Nc1cccc2nc(NCCCO)ccc12` [Example 6, 2-(1-Adamantyl)-N-{2-[(3-hydroxypropyl)amino]quinolin-5-yl}acetamide] had a half-inhibitory concentration (IC50) in series [1] of 8.91 nM.
Take `Cc1ccc2nc(NCCCO)ccc2c1NC(=O)CC12CC3CC(CC(C3)C1)C2` [Example 12, 2(1-Adamantyl)-N-{2-[(3-hydroxypropyl)amino]-6-methylquinolin-5-yl}acetamide]: the melting point is 168 to 174 °C.
For the compound `O=C(CC12CC3CC(CC(C3)C1)C2)Nc1cccc2cnccc12` [Example 160, 2-(1-Adamantyl)-N-isoquinolin-5-ylacetamide], the IC50 in series [1] was 79.4 nM.
Still for that read-out and setting: then `CNCCCc1ccc2c(C(=O)NCC34CC5CC(CC(C5)C3)C4)c(Cl)ccc2n1` [Example 167, N-(1-Adamantylmethyl)-6-chloro-2-[3-(methylamino)propyl]quinoline-5-carboxamide Sesquihydrochloride], with 5.01 nM.
In turn, `O=C(NCC12CC3CC(CC(C3)C1)C2)c1cc(CCCNCCCO)nc2ccccc12` [Example 168, N-(1-Adamantylmethyl)-2-{3-[(3-hydroxypropyl)amino]propyl}quinoline-4-carboxamide Benzoic Acid Salt] gave an IC50 in series [1] of 25.1 nM.
Turning to `CNCCCNc1ccc2c(NC(=O)CC34CC5CC(CC(C5)C3)C4)c(C)ccc2n1` [Example 204, 2-(1-Adamantyl)-N-(6-methyl-2-{[3-(methylamino)propyl]amino}quinolin-5-yl)acetamide], the melting point was 217 to 224 °C.
